Series [1] concerns Nakaseomyces glabratus. Put plainly: Antifungal activity against Candida glabrata ATCC 90030 after 24 to 72 hrs by M27-A2 CLSI method. Type of series: functional.
The subject of the next series is LLC-PK1. Briefly: Cytotoxicity against pig LLC-PK1 cells at 10 ug/ml by neutral red assay. The series is classed as cell-based, Sus scrofa.
In the next series the test system is Vero. Briefly: Cytotoxicity against african green monkey Vero cells at 10 ug/ml by neutral red assay. Type of series: cell-based. The conditions noted are these: chlorocebus sabaeus.
For the next series, the system named is SK-MEL. Put plainly: Cytotoxicity against human SK-MEL cells at 10 ug/ml by neutral red assay. The series is classed as cell-based.
Series [2] concerns Candida albicans. Put plainly: Antifungal activity against Candida albicans ATCC 90028 at 20 ug/ml after 24 to 72 hrs by M27-A2 CLSI method. Type of series: functional, organism-based.
Another series relates to KB. Briefly: Cytotoxicity against human KB cells at 10 ug/ml by neutral red assay. The series is classed as cell-based.
Series [3] relates to Cryptococcus neoformans. Put plainly: Antifungal activity against Cryptococcus neoformans ATCC 90113 after 24 to 72 hrs by M27-A2 CLSI method. Type of series: functional.
The test system of series [4] is Pichia kudriavzevii. Briefly: Antifungal activity against Candida Krusei ATCC 6258 after 24 to 72 hrs by M27-A2 CLSI method. Type of series: functional.
The test system of a further series is SK-OV-3. Put plainly: Cytotoxicity against human SKOV3 cells at 10 ug/ml by neutral red assay. Type of series: cell-based.
The subject of another series is BT-549. Put plainly: Cytotoxicity against human BT549 cells at 10 ug/ml by neutral red assay. The series is classed as cell-based.
Series [5] deals with Candida albicans. Put plainly: Antifungal activity against Candida albicans ATCC 90028 after 24 to 72 hrs by M27-A2 CLSI method. Type of series: functional.
The test system of series [6] is Pichia kudriavzevii. Briefly: Antifungal activity against Candida Krusei ATCC 6258 at 20 ug/ml after 24 to 72 hrs by M27-A2 CLSI method. The series is classed as functional, organism-based.
For series [7], the system named is Nakaseomyces glabratus. Briefly: Antifungal activity against Candida glabrata ATCC 90030 at 20 ug/ml after 24 to 72 hrs by M27-A2 CLSI method. The series is classed as functional, organism-based.
Series [8] relates to Aspergillus fumigatus. Briefly: Antifungal activity against Aspergillus fumigatus ATCC 204305 after 24 to 72 hrs by M27-A2 CLSI method. The series is classed as functional, organism-based.
Series [9] deals with Cryptococcus neoformans. Briefly: Antifungal activity against Cryptococcus neoformans ATCC 90113 at 20 ug/ml after 24 to 72 hrs by M27-A2 CLSI method. Type of series: functional, organism-based.
The test system of series [10] is Aspergillus fumigatus. Briefly: Antifungal activity against Aspergillus fumigatus ATCC 204305 at 20 ug/ml after 24 to 72 hrs by M27-A2 CLSI method. The series is classed as functional, organism-based.

In brackets after ≈: the same amount, converted by molar mass. Activity calls are given as the source filed them. The rule behind the calls is not given here.

As for `CCCCCCCCCCCCCCCCCC1=NCCCC1`, the minimum fungicidal concentration (MFC) in the series with Nakaseomyces glabratus [1] was determined as 7.5 µg/mL (≈ 23.3 µM); with Cryptococcus neoformans [3] it was 3.8 µg/mL (≈ 11.8 µM); with Pichia kudriavzevii [4] it was 15 µg/mL (≈ 46.6 µM). Further, the results for the minimal inhibitory concentration (MIC) in the series with Nakaseomyces glabratus [1], in the series on Cryptococcus neoformans [3] and in the series on Pichia kudriavzevii [4] were 5 µg/mL (≈ 15.5 µM), 2.5 µg/mL (≈ 7.77 µM) and 15 µg/mL (≈ 46.6 µM), respectively. Besides, the Activity entry in the series with LLC-PK1, in the series on Vero, in the series on SK-MEL, with KB, with SK-OV-3 and in the series on BT-549 was “Non-toxic” each time. In addition, the MIC entry in the series with Candida albicans [2] was “inactive”.
As for `CCCCCCCCCCCCCCCC1=NCCCC1`, the MFC in the series on Nakaseomyces glabratus [1] was determined as 15 µg/mL (≈ 51.1 µM); in the series on Cryptococcus neoformans [3], 12.5 µg/mL (≈ 42.6 µM); against Pichia kudriavzevii [4] it was 15 µg/mL (≈ 51.1 µM). Further, the MIC is 10 µg/mL (≈ 34.1 µM) against Nakaseomyces glabratus [1], 11.2 µg/mL (≈ 38.2 µM) against Cryptococcus neoformans [3] and 10 µg/mL (≈ 34.1 µM) in the series with Pichia kudriavzevii [4]. The Activity entry in the series on LLC-PK1, in the series with Vero, in the series on SK-MEL, with KB, in the series with SK-OV-3 and in the series with BT-549 was “Non-toxic” each time. Further, the MIC result in the series with Candida albicans [2] is “inactive”.
Regarding `CCCCCCCCCCCCCCCCC1=NCCCC1`, the MFC worked out at 7.5 µg/mL (≈ 24.4 µM) in the series with Nakaseomyces glabratus [1], 3.8 µg/mL (≈ 12.4 µM) in the series with Cryptococcus neoformans [3], 15 µg/mL (≈ 48.8 µM) with Candida albicans [5] and 7.5 µg/mL (≈ 24.4 µM) with Pichia kudriavzevii [4]. For the same molecule, the MIC against Nakaseomyces glabratus [1] worked out at 7.5 µg/mL (≈ 24.4 µM); against Cryptococcus neoformans [3], 3.8 µg/mL (≈ 12.4 µM); against Candida albicans [5], 15 µg/mL (≈ 48.8 µM); against Pichia kudriavzevii [4], 7.5 µg/mL (≈ 24.4 µM). In addition, the Activity entry with LLC-PK1, with Vero, in the series with SK-MEL, with KB, in the series on SK-OV-3 and in the series on BT-549 was “Non-toxic” throughout.
Turning to `CCCCCCCCCCCCCCCCCCC1=NCCCC1`, the MFC against Nakaseomyces glabratus [1] and in the series with Cryptococcus neoformans [3] was 15 µg/mL (≈ 44.7 µM) in each case. Moreover, the MIC against Nakaseomyces glabratus [1] and against Cryptococcus neoformans [3] was 10 µg/mL (≈ 29.8 µM) in each case. The MIC result in the series with Pichia kudriavzevii [6] and with Candida albicans [2] was “inactive” each time. Moreover, the Activity result with LLC-PK1, in the series with Vero, in the series with SK-MEL, in the series on KB, in the series on SK-OV-3 and with BT-549 was “Non-toxic” throughout.
Regarding `CCCCCCCCCCCCC1=NCCCC1`, the result in the series with Nakaseomyces glabratus [7], with Aspergillus fumigatus [8], with Candida albicans [2], in the series with Cryptococcus neoformans [9] and in the series with Aspergillus fumigatus [10] was inactive.
Regarding `CCCCCCCCCCCCCC1=NCCCC1`, the outcome in the series on Nakaseomyces glabratus [7], in the series on Aspergillus fumigatus [8], with Candida albicans [2], with Cryptococcus neoformans [9] and in the series on Aspergillus fumigatus [10] was inactive.
For `CCCCCCCCCCCCCCC1=NCCCC1`, the MIC entry with Nakaseomyces glabratus [7], in the series with Pichia kudriavzevii [6] and with Candida albicans [2] was “inactive” throughout. Moreover, the Activity entry in the series on LLC-PK1, with Vero, with SK-MEL, in the series with KB, in the series with SK-OV-3 and with BT-549 was “Non-toxic” in each case. The molecule also returned an MFC against Cryptococcus neoformans [3] of 10 µg/mL (≈ 35.8 µM). Besides, it took 10 µg/mL (≈ 35.8 µM) to inhibit growth with Cryptococcus neoformans [3] (MIC).
For `C[C@@H]1[C@H](O)[C@@H](C)/C=C/C=C/C=C/C=C/C=C/C=C/C=C/[C@H](O[C@@H]2O[C@H](C)[C@@H](O)[C@H](N)[C@@H]2O)C[C@@H]2O[C@](O)(C[C@@H](O)C[C@@H](O)[C@H](O)CC[C@@H](O)C[C@@H](O)CC(=O)O[C@H]1C)C[C@H](O)[C@H]2C(=O)O` [AMPHOTERICIN B], the results for the minimal fungicidal concentration (MFC) in the series on Nakaseomyces glabratus [1], against Cryptococcus neoformans [3] and against Pichia kudriavzevii [4] were 0.94 µg/mL (≈ 1.02 µM), 0.47 µg/mL (≈ 0.509 µM) and 1.25 µg/mL (≈ 1.35 µM), respectively. Further, the MIC was 0.63 µg/mL (≈ 0.682 µM) with Nakaseomyces glabratus [1], 0.47 µg/mL (≈ 0.509 µM) with Cryptococcus neoformans [3], 0.47 µg/mL (≈ 0.509 µM) in the series on Candida albicans [5] and 1.25 µg/mL (≈ 1.35 µM) in the series with Pichia kudriavzevii [4].
